Reference: US20040214305A1, “Method of improving biomass yield of lactic acid bacterial cultures” (DANMARKS TEKNISKE UNIVERSITET, priority 2000, published 2004)

Columns and labels:
[1] = test system: phospho-β-D-galactosidase in FHCY-1 cells; experiment: Phospho-beta-galactosidase activity (ONPG-P substrate) as lac operon expression; assay type: cell-based, Lactococcus lactis subsp. lactis; conditions: for Specific activity of phospho-β-D-galactosidase: FHCY-1 cells grown in M17 on the carbon/energy source, average of two determinations
Procedure: The expression of the lac operon in the cells grown on the various sugars was also tested by measuring the activity of the enzyme phospho-beta-galactosidase. Samples were taken from the cultures in FIG. 2 and processed as described previously (Jensen and Hammer, 1998). Subsequently, the activity of phospho-beta-galactosidase was determined as the standard determination of beta-galactosidase, except that o-nitrophenyl-beta-D-galactopyranoside 6-phosphate (ONPG-P) was used as the chromogenic substrate instead of o-nitrophenyl-beta-D-galactopyranoside (ONPG).

[2] = test system: commercial mixed strain starter culture of Lactococcus lactis; experiment: Biomass production in pH controlled aerobic batch in complex media with haemin; assay type: cell-based; conditions: for Yield (OD600nm): haemin, aerobic pH controlled batch
Procedure: A commercial mixed strain starter culture of Lactococcus lactis was applied in this Example. The cultivations were performed on complex media containing hydrolysed skimmed milk powder, yeast extract, essential vitamins and minerals and either lactose or maltose as carbon source. Furthermore, the media were supplemented with haemin. Medium 1 and Medium 2 were optimised with respect to the cellular yield on respectively lactose and maltose as carbon source. All media were adjusted to an initial pH of 6.5.
The cultivations were inoculated with concentrated cell suspensions of the L. lactis culture. Air was sparged through the cultivation broths at a rate sufficient to maintain the dissolved oxygen concentration above 50% of saturation level. The cultivations were conducted at a temperature of 30° C. The cultures were allowed to acidify to pH 6.2, and subsequently maintained at pH 6.2 by controlled addition of 13.4 N NH4OH. Samples were collected throughout the cultivations for measurements of the optical density using a Hitachi U-1100 Spectrophotometer at […].

[3] = test system: Lactococcus lactis subsp. cremoris PJ4662; experiment: Biomass yield (OD600) in aerobic batch culture in defined SA medium; assay type: cell-based; conditions: for Increase of yield of biomass relative to MSA / Increase of yield of biomass relative to GSA: PJ4662, aerobic; for Increase of yield of biomass relative to MSA / Biomass: SA medium with 0.1% maltose; for Increase of yield of biomass relative to GSA: SA medium with growth limiting glucose; for Biomass: PJ4662, batch, maltose alone = 100
Procedure: Wild type L. lactis subsp. cremoris PJ4662, a derivative of the strain MG1363 containing the pAK80 plasmid (Israelsen et al., 1995) was grown aerobically in defined SA medium (Jensen and Hammer, 1993) supplemented with a growth limiting concentration of glucose (GSA), and in GSA medium further supplemented with haemin (GSA+H), heamin+lipoic acid (GSA+H+L) and: lipoic acid alone (GSA+L). The biomass yield was estimated by measuring the optical density at 600 nm (OD600). The yield of biomass increased by about 12% relative to the yield obtained with GSA when the medium was supplemented with haemin, by about 25% using the haemin+lipoic acid supplement and by about 7% using lipoic acid alone.
L. lactis subsp. cremoris PJ4662 was grown aerobically in defined SA medium (Jensen and Hammer, 1993) supplemented with a growth-limiting concentration of 0.1% maltose (MSA), and in MSA medium further supplemented with haemin (MSA+H), haemin+lipoic acid (MSA+H+L) and lipoic acid alone (MSA+L). The biomass yield was estimated by measuring the optical density at 600 nm (OD600), see Table 1.2 below.
It was also tested whether the extent of aeration affected the biomass yield and the amount of ATP produced by oxidative phosphorylation by performing an experiment (Table 1.3) using more vigorous aeration as compared to the experiment illustrated in Table 1.2.
Wild type L. lactis subsp. cremoris PJ4662, a derivative of the strain MG1363 containing the pAK80 plasmid (Israelsen et al., 1995) was grown aerobically in defined SA medium (Jensen and Hammer, 1993) supplemented with a growth limiting concentration of galactose and lipoic acid (GaSAL), and in GaSAL medium further supplemented with haemin+lipoic acid (GaSALH). The biomass yield was estimated by measuring the optical density at 600 nm (OD600). The yield of biomass increased by 30% relative to the yield obtained with GaSAL when the medium was supplemented with haemin (GaSALH). A chemostat experiment was also performed with cells grown on galactose. Here the biomass increased by 75% compared to the biomass obtained in GaSAL medium.

atp mutant strain PJ4699 = experiment: Biomass yield (OD600) of atp mutant strain with lower H+-ATPase expression; assay type: cell-based, Lactococcus lactis; conditions: PJ4699, no nisin
Source text: In order to investigate whether or not the surplus of ATP that was found in the cultures cultivated in maltose medium (with haemin and lipoic acid) is due to oxidative phosphorylation it was decided to compare the biomass yield of a wild type strain and a strain which, relative to the wild type strain, has a lower expression of the H^+-ATPase complex. For that purpose a mutant strain of the MG1363 strain, PJ4699, was used. In this mutant strain the native promoter of the chromosomal atp operon has been replaced with the nisA promoter (de Ruyter et al., 1996).
This mutant therefore permitted an experiment to be performed where the biomass yield of the wild type strain and the H^+-ATPase mutant which had lower expression of the H^+-ATPase was compared. If ATP is synthesised by the H^+-ATPase complex, then the biomass yield on maltose should be lower in the mutant cells having lower activity of this enzyme, under conditions where oxidative phosphorylation is observed.

[4] = test system: Lactococcus lactis subsp. cremoris; experiment: Intracellular [ATP]/[ADP] ratio in exponentially growing aerobic cultures; assay type: cell-based; conditions: MSA+L+H versus MSA+L
Procedure: The intracellular concentrations of ATP and ADP was measured to test whether the addition of a porphyrin to a culture growing on a poor carbon/energy source would increase the [ATP]/[ADP] ratio as might be expected if the ATP synthase starts to produce ATP. Samples were taken from exponentially growing cultures of Lactococcus lactis subsp. cremoris at cell densities between 0.2 and 0.8 (OD600). The total intracellular metabolite content were extracted as described previously (Andersen et al., 2001) and the concentrations of ATP and ADP were determined as described in Jensen et al. (1 993).

[5] = test system: Lactococcus lactis subsp lactis FHCY-1; experiment: Growth in M17 batch cultures supplemented with different sugars; assay type: cell-based; conditions: FHCY-1, M17 medium
Procedure: Therefore, the growth of the starter culture strain, FHCY-1, was tested on various sugars.

[6] = Medium 1 (optimised for growth on lactose)

Molecule	Specific activity of phospho-β-D-galactosidase [1]	Yield (OD600nm) [2, 6]	Increase of yield of biomass relative to MSA [3]	Increase of yield of biomass relative to GSA [3]	other results
OC[C@H]1O[C@@H](O[C@H]2[C@H](O)[C@@H](O)C(O)O[C@@H]2CO)[C@H](O)[C@@H](O)[C@H]1O (stereo partly drawn) [Lactose, lactose]	149.5	48 OD600nm	–	–	–
haemin	–	–	33%	about 12%	Growth of the nisin-dependent atp mutant without nisin (atp mutant strain PJ4699): capable of growth without nisin; Growth rate increase of haemin culture versus culture without haemin [4]: 30%
O=C[C@H](O)[C@@H](O)[C@@H](O)[C@H](O)CO [Galactose, galactose]	172.2	–	–	–	Increase of phospho-β-D-galactosidase activity compared to lactose ([1]; FHCY-1 cells): 20%; Reduction of growth compared to lactose [5]: approximately 20%
OC[C@H]1O[C@H](O[C@H]2[C@H](O)[C@@H](O)[C@H](O)O[C@@H]2CO)[C@H](O)[C@@H](O)[C@@H]1O [maltose]	37.5	60 OD600nm	–	–	Biomass ([3]; moderate aeration): 100%; Biomass ([3]; vigorous aeration): 100%; Yield (OD600nm) ([2]; Medium 2 (optimised for growth on maltose)): 96 OD600nm; Increase of final yield of biomass compared to the lactose culture ([2]; medium 1, haemin, aerobic): 25%; Yield of biomass compared to optimised lactose medium ([2]; medium 2, haemin, aerobic): two-fold higher
O=C(O)CCCC[C@@H]1CCSS1 (racemic) [lipoic acid]	–	–	48%	about 7%	–
